Results taken from patent US9969732B2, “Tetrahydroisoquinoline estrogen receptor modulators and uses thereof” (Genentech, Inc., priority 2016, dated 2018).

Molecular target: T1, ER-alpha (WT) (Homo sapiens, UniProt P03372)
T1 construct: endogenous in cells; host or cells: MCF7 breast cancer cells
T1 sequence (P03372 1-595): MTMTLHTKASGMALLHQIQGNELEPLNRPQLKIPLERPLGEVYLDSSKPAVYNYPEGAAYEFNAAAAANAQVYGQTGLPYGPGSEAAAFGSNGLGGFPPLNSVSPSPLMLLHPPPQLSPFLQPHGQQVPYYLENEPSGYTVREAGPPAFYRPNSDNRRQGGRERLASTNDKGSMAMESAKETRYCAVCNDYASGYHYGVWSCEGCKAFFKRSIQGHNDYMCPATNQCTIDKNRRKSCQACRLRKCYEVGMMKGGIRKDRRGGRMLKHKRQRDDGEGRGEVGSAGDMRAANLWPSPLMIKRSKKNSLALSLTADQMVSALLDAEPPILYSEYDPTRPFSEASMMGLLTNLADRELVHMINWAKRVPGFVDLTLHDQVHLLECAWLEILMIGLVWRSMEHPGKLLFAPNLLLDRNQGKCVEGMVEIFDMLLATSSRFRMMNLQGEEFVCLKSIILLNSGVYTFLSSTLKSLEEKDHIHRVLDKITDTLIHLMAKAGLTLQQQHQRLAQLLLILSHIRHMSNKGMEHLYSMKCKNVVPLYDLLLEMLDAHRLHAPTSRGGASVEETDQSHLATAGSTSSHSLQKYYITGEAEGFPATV
Assay: Breast Cancer Cell ERa High Content Fluorescence Imaging Degradation Assay (MCF7 HCS)
Format: cell-based
Conditions: MCF7 breast cancer cells, 4 hours incubation; for EC50: inflexion point of curve; for ERalpha (WT) MCF7 HCS (S inf): plateau of the maximal effect, DMSO and Fulvestrant define 0% and 100% changes in ESR1

| EC50 | ERalpha (WT) MCF7 HCS (S inf) | SMILES |
| --- | --- | --- |
| ≥ 100 nM | – | FCC1CN(CCOc2ccc([C@H]3c4ccc(N5CCOCC5)cc4CCN3CC(F)(F)F)cc2)C1 [Example 147, 4-[(1S)-1-[4-[2-[3-(fluoromethyl)azetidin-1-yl]ethoxy]phenyl]-2-(2,2,2-trifluoroethyl)-3,4-dihydro-1H-isoquinolin-6-yl]morpholine] |
| 12 nM | −89% | FCC1CN(CCOc2ccc([C@@H]3c4ccc(N5CCOCC5)cc4CCN3CC(F)(F)F)cc2)C1 [Example 148, 4-[(1R)-1-[4-[2-[3-(fluoromethyl)azetidin-1-yl]ethoxy]phenyl]-2-(2,2,2-trifluoroethyl)-3,4-dihydro-1H-isoquinolin-6-yl]morpholine] |
| 1.7 nM | −100% | OCc1ccc2c(c1)CCN(CC(F)(F)F)[C@@H]2c1ccc(OCCN2CC(CF)C2)cc1 [Example 150, [(1R)-1-[4-[2-[3-(fluoromethyl)azetidin-1-yl]ethoxy]phenyl]-2-(2,2,2-trifluoroethyl)-3,4-dihydro-1H-isoquinolin-6-yl]methanol] |
| ≥ 100 nM | – | FCC1CN(CCOc2ccc([C@H]3c4ccc(-c5cc[nH]n5)cc4CCN3CC(F)(F)F)cc2)C1 [Example 151, (1S)-1-[4-[2-[3-(fluoromethyl)azetidin-1-yl]ethoxy]phenyl]-6-(1H-pyrazol-3-yl)-2-(2,2,2-trifluoroethyl)-3,4-dihydro-1H-isoquinoline] |
| 17 nM | −91% | FCC1CN(CCOc2ccc([C@@H]3c4ccc(-c5cc[nH]n5)cc4CCN3CC(F)(F)F)cc2)C1 [Example 152, (1R)-1-[4-[2-[3-(fluoromethyl)azetidin-1-yl]ethoxy]phenyl]-6-(1H-pyrazol-3-yl)-2-(2,2,2-trifluoroethyl)-3,4-dihydro-1H-isoquinoline] |
| 0.48 nM | −98% | CC1(C)Cc2cc(O)ccc2[C@H](c2ccc(OCCN3CC(CF)C3)cc2)N1CC(F)(F)F [Example 157, (S)-1-(4-(2-(3-(Fluoromethyl)azetidin-1-yl)ethoxy)phenyl)-3,3-dimethyl-2-(2,2,2-trifluoroethyl)-1,2,3,4-tetrahydroisoquinolin-6-ol] |
| 11 nM | −82% | C[C@@H]1Cc2cc(C(C)(C)O)ccc2[C@@H](c2ccc(OCCN3CC(CF)C3)cc2)N1CC(F)(F)F [Example 161, 2-((1R,3R)-1-(4-(2-(3-(Fluoromethyl)azetidin-1-yl)ethoxy)phenyl)-3-methyl-2-(2,2,2-trifluoroethyl)-1,2,3,4-tetrahydroisoquinolin-6-yl)propan-2-ol] |
| 280 nM | – | C[C@H]1Cc2cc(C(C)(C)O)ccc2[C@H](c2ccc(OCCN3CC(CF)C3)cc2)N1CC(F)(F)F [Example 162, 2-((1S,3S)-1-(4-(2-(3-(Fluoromethyl)azetidin-1-yl)ethoxy)phenyl)-3-methyl-2-(2,2,2-trifluoroethyl)-1,2,3,4-tetrahydroisoquinolin-6-yl)propan-2-ol] |
| 0.96 nM | −101% | C[C@H]1Cc2cc(O)ccc2[C@H](c2ccc(OCCN3CC(CF)C3)cc2)N1CC(F)(F)CO [Example 165, (1S,3S)-2-(2,2-Difluoro-3-hydroxypropyl)-1-(4-(2-(3-(fluoromethyl)azetidin-1-yl)ethoxy)phenyl)-3-methyl-1,2,3,4-tetrahydroisoquinolin-6-ol] |
| 0.066 nM | −105% | C[C@@H]1Cc2cc(O)ccc2[C@@H](c2ccc(OCCN3CC(CF)C3)cc2)N1CC(F)(F)CO [Example 166, (1R,3R)-2-(2,2-Difluoro-3-hydroxypropyl)-1-(4-(2-(3-(fluoromethyl)azetidin-1-yl)ethoxy)phenyl)-3-methyl-1,2,3,4-tetrahydroisoquinolin-6-ol] |
| 0.14 nM | −99% | C[C@@H]1Cc2cc(CO)ccc2[C@@H](c2ccc(OCCN3CC(CF)C3)cc2)N1CC(F)(F)CO [Example 172, 2,2-Difluoro-3-((1R,3R)-1-(4-(2-(3-(fluoromethyl)azetidin-1-yl)ethoxy)phenyl)-6-(hydroxymethyl)-3-methyl-3,4-dihydroisoquinolin-2(1H)-yl)propan-1-ol] |
| > 100 nM | – | CC(=O)c1ccc2c(c1)C[C@H](C)N(CC(F)(F)CO)[C@H]2c1ccc(OCCN2CC(CF)C2)cc1 [Example 176, 1-((1S,3S)-2-(2,2-Difluoro-3-hydroxypropyl)-1-(4-(2-(3-(fluoromethyl)azetidin-1-yl)ethoxy)phenyl)-3-methyl-1,2,3,4-tetrahydroisoquinolin-6-yl)ethanone] |
| > 100 nM | – | C[C@H](O)c1ccc2c(c1)C[C@@H](C)N(CC(F)(F)CO)[C@@H]2c1ccc(OCCN2CC(CF)C2)cc1 [Example 178, 2,2-Difluoro-3-((1R,3R)-1-(4-(2-(3-(Fluoromethyl)azetidin-1-yl)ethoxy)phenyl)-6-((S)-1-hydroxyethyl)-3-methyl-3,4-dihydroisoquinolin-2(1H)-yl)propan-1-ol] |
| – | −73.5% | Oc1ccc2c(c1)CC[C@H](c1ccccc1)[C@@H]2c1ccc(OCCN2CCCC2)cc1 [lasofoxifene, (5R,6S)-6-phenyl-5-(4-(2-(pyrrolidin-1-yl)ethoxy)phenyl)-5,6,7,8-tetrahydronaphthalen-2-ol, reference compound] |
